From patent US11655308B2, “HM-3 fusion protein and application thereof” (TASLY BIOPHARMACEUTICALS CO., LTD., priority 2017, dated 2023)
Like-named read-outs stand apart in the source and are kept apart here. No end group written: not given here.

How the values were obtained:
[1] = test system: transgenic blood vessel fluorescent zebrafish; assay: In vivo anti-angiogenesis in zebrafish (SIVs area); parameters: area of SIVs: unit not given here; conditions: for inhibiting effect on angiogenesis: 20 ng/tail; for inhibition rate of angiogenesis / area of SIVs: 24 h; for area of SIVs: normal control group 53193
Method: Experimental method: transgenic blood vessel fluorescent zebrafish was randomly selected and put into a six-well plate with 30 fish per well, and intravenously injected HM-3 polypeptide, TSL-1 fusion protein, TSL-2 fusion protein, TSL-3 fusion protein and TSL-4 fusion protein respectively in accordance with the dosage of 20 ng/tail and 66 ng/tail; the dosage was […] in Avastin positive control and the injection volume was 20 nL/tail; the zebrafish injected 20 nL/tail of buffer solution served as a solvent control group, and the zebrafish without any treatment served as a normal control group. 10 pieces of zebrafish were randomly selected from each group after processed for 24 h to observe the intestinal vessels of the transgenic zebrafish by a fluorescence microscope, as well as to take and maintain images. Image analysis was performed by Nikon MS-Elements D 3.10 to calculate the area (S) of SIVs (subintestinal vessel, SIV). The calculation formula of angiogenesis inhibition rate was as follows: Angiogenesis inhibition rate (%)=(1−S(Test sample group)/S(Normal control group))×100%
Statistical analysis was performed by variance analysis and Dunnett's T-test and the results were expressed as Mean±SD, where p<0.05 indicates a significant difference.

[2] = test system: mice splenic lymphocyte proliferation stimulated by ConA; assay type: cell-based; conditions: for optimal (best) inhibition rate of splenic lymphocyte proliferation: ConA 5 μg/mL, 48 h, MTT, best of the tested concentrations; for inhibition rate / in vitro efficacy compared with TSL-4 control group: control: TSL-4 (P4 positive control, 12 μmol/L)
Method: Experimental method: mice orbit was by bloodletting to death, and immediately immersed in 75% ethanol for 5-10 min, and then the spleen was removed on a clean bench and placed in PBS. The spleen was placed on a sterile cell strainer (200 mesh) and ground with a syringe nozzle; during grinding process, PBS was added continuously; the slurry was collected and centrifuged (1000 rpm for 5 min), then cells were washed 3 times with Tris-ammonium chloride solution, and washed again with a medium, and then re-suspended in the medium. Finally, trypan blue living cell staining was performed on the cells, and the survival rate was more than 95%. The concentration of viable cells was adjusted to 2×10^6/mL. […] was added to each well of a 96-well plate, meanwhile, ConA (concanavalin to simulate splenocyte proliferation) and drugs were added to each well. Six duplicates were set in each group.
The 96-well plate was incubated for 48 h in a 5% CO2 incubator at 37° C. 5 mg/mL of MTT was added to the 96-well plate, 20 μL for each well, and then it was incubated continuously for 4 h in the incubator. The culture medium in the 96-well plate was discarded and 100 μL DMSO was added to each well and mixed gently. Absorbance was measured by a microplate reader at the wavelength of 570 nm and reference wavelength of 630 nm.
Proliferation inhibition rate (PI) was calculated according to formula:
[formula] wherein, Atest is the absorbance of dosing group, and Acontrol is the absorbance of negative control. Test results were expressed as mean±SD, and statistical T test was performed. *P<0.05 indicates significant difference, **P<0.01 indicates extremely significant difference. Based upon the results, the efficacy of the fusion protein against rheumatoid arthritis was screened.
In the P4 control group, TSL-4 fusion protein served as a control agent.

[3] = test system: Rat chondrocyte
Method: Chondrocytes were cultured in a T75 flask for 3-4 days. When the degree of fusion reached 80%, the original culture medium was removed, and sterile PBS was added to clean the cells for 2-3 times, then a proper amount of digestive juice was added, and a fresh culture medium was added after the cells were detached. Cells were centrifuged to remove the cell sap containing the digestive juice, and a proper amount of fresh culture medium was added to be prepared into a cell suspension with appropriate concentration for cell subculture or cell experiments. Cell subculture began from generation P1 and ended till generation P5, and there were cryopreserved cells in each generation. Cells were used for the experiment when subcultured to P2-P5.
According to the inoculum size of 200 μL/well, the cell suspension with the density of 2.5*10^4/mL was inoculated onto a 96-well cell culture plate, and 3 groups were prepared in total, one for control group, and the other two groups were stimulated by hydrogen peroxide. A cell-free medium was prepared as a blank group. There were 4-5 sub-wells prepared in each group. The cell culture plate was put to an incubator for incubation for 24 hours. The culture medium was replaced to different experimental groups in the following day with a dose volume of 100 μl and incubated for 24 or 48 hours respectively.
At the end of incubation according to the experimental plan, 10 μL of 5 mg/ml MTT was added to each experimental group based upon 1/10 of the cell culture volume, so that the cells were incubated with MTT in the incubator for 4 hours. Afterwards, supernatant was carefully discarded, and 200 μL of dimethyl sulfoxide (DMSO) was added for mixing well, then the absorbance was measured on a microplate reader at a test wavelength of 570 nm. Calculating formula of relative cell activity ratio (%): a mean value of the absorbance (per well) in the experimental group/the absorbance in the control group multiplies by 100%. All experimental groups were expressed as mean±standard deviation (X±SD). The difference between each group was analyzed by Prism 7.0, and tested by one-way ANOVA. *P<0.05 means statistical difference, **P<0.01 means significant statistical difference, and […] means extremely significant statistical difference.
The experimental concentration of hydrogen peroxide ranged within 0.01, 0.1, 0.5, 1, 10 mM. In order to determine the H2O2 molding time and dosage, three molding time points at 24 hours, 48 hours and 72 hours were selected, and two detection wells were prepared in total for each dosage of hydrogen peroxide.

[4] = test system: type-II CIA mice; assay: Chronic inflammation model of type-II CIA in mice; assay type: in vivo, Balb/c mice; conditions: for ankle width / arthritis scoring / paw circumference / weight of mice / spleen weight: day 60; for ankle width: model G2 4.83±0.20; for arthritis scoring: model G2 11.5±1.7; for paw circumference: model G2 13.62; for weight of mice: model G2 19.5±1.6; for spleen weight: model G2 114.6±14.5
Method: Experimental method: Balb/c mice were taken and immunized for the first time. The concentration of type-II bovine collagen was 4 mg/mL. On the day of the experiment (day 0), complete Freund's adjuvant (CFA) and CII solution were mixed evenly in equal volume and emulsified. Excepting for the normal control group of Balb/c mice, mice in each group were sensitized by intracutaneous injection of 50 μL emulsifier at the end of tails. 21 days later, mice were re-immunized with the same dose of emulsifier at the end of tails, and incomplete Freund's adjuvant (IFA) served as an adjuvant at this time. Redness and swelling other arthritic symptoms appeared on toe joints of mice models approximately on the 29th day of the experiment, indicating successful modeling.
Animals in the modeling group on the 30th day of the experiment were randomly divided into:
There were 12 groups in total, and there were 8 pieces of mice in remaining each group excepting for 12 pieces in G1 (normal control group) and G2 (model group).
Measurement of mice weight: mice were weighed by an electronic balance every two days.
Measurement of sole thickness: the thickness of left, right and hind soles for each mouse was measured by a vernier caliper every two days.
Measurement of ankle joint width: the width of left and right ankle joints for each mouse was measured by vernier caliper every two days.
Arthritis index (AI) score: the severity of arthritis for each mouse was evaluated by a paw joint scoring method. 0: no redness and swelling; 1: redness and swelling of little toe joints; 2: redness and swelling of toe joints and toes; 3: redness and swelling of the portion below ankle joints; 4: redness and swelling of toe joints, toes and ankle joints. Scoring was performed once every two days until the end of the experiment.
Blood was collected from the orbit and serum was separated. After mice were killed by cervical dislocation, spleen and thymus were separated and weighed to calculate a spleen coefficient, and then the spleen and thymus were fixed in formalin stationary liquid.

[5] = test system: human macrophage U937; assay: TNF-α production by LPS-induced human macrophage U937 (ELISA); assay type: cell-based; conditions: LPS 1 μg/mL, 48 h, negative group 77.6±19.6
Method: Experimental method: Human macrophage U937 was cultured in RPMI-1640 medium containing 10% fetal bovine serum and double antibodies in a constant temperature incubator at 37° C. under the condition of 5% CO2, and the medium was replaced every 2 days. U937 cells in the logarithmic phase were collected, resuspended and adjusted to the concentration of 5×10^5/mL. 100 μL of cells was added to each well of a 96-well plate overnight and induced with LPS (1 μg/mL) in the following day, where n=3. At the same time, the cells were treated with agents, and respectively divided into a positive control group adalimumab, an HM-3 polypeptide group, an mPEG-SC-HM-3 polypeptide group, an HM-3 fusion protein (TSL-1, TSL-2, TSL-3, TSL-4) group, and the specific dosing scheme was shown in Table 5.
48 h after the agents worked, culture medium was collected and centrifuged, and supernatant was taken to measure the content of TNF-α therein by ELISA. Test results were expressed as mean±SD, and statistical T test was performed. *P<0.05 indicates significant difference, **P<0.01 indicates extremely significant difference. Based upon the results, the efficacy of the HM-3 fusion protein against rheumatoid arthritis was screened.

[6] = G3 Adalimumab 8 mg/kg SC 1 time/14 d, 1 time
[7] = G4 HM-3 1.6 mg/kg IV 2 times/d, 30 times

HM-3-(GGGGS)3-mIgG4-Fc [TSL-2]
inhibiting effect on angiogenesis [1]: significant inhibitory effect
inhibition rate of angiogenesis ([1]; 20 ng/tail iv): 19%
area of SIVs ([1]; 20 ng/tail iv): 42828
inhibition rate of angiogenesis ([1]; 66 ng/tail iv): 39%
area of SIVs ([1]; 66 ng/tail iv): 32374
optimal (best) inhibition rate of splenic lymphocyte proliferation [2]: 34.1%

OO [H2O2, hydrogen peroxide]
MTT test value ([3]; 0.01 mM H2O2, 24 h, 0 mM 2.35): 2.51
MTT test value ([3]; 0.01 mM H2O2, 48 h, 0 mM 2.24): 2.1
MTT test value ([3]; 0.01 mM H2O2, 72 h, 0 mM 1.94): 1.99
MTT test value ([3]; 0.1 mM H2O2, 24 h, 0 mM 2.35): 2.29
MTT test value ([3]; 0.1 mM H2O2, 48 h, 0 mM 2.24): 2.08
MTT test value ([3]; 0.1 mM H2O2, 72 h, 0 mM 1.94): 1.92
MTT test value ([3]; 1 mM H2O2, 24 h, 0 mM 2.35): 1.28
MTT test value ([3]; 1 mM H2O2, 48 h, 0 mM 2.24): 1.47
MTT test value ([3]; 1 mM H2O2, 72 h, 0 mM 1.94): 0.81
MTT test value ([3]; 10 mM H2O2, 24 h, 0 mM 2.35): 0.06
MTT test value ([3]; 10 mM H2O2, 48 h, 0 mM 2.24): 0.56
MTT test value ([3]; 10 mM H2O2, 72 h, 0 mM 1.94): −0.07

HM-3-HyFc [TSL-14]
inhibition rate / in vitro efficacy compared with TSL-4 control group [2]: Significantly lower

Adalimumab [reference compound]
ankle width [4, 6]: 4.23±0.08 mm
arthritis scoring [4, 6]: 7.6±0.9
paw circumference [4, 6]: 11.42±0.20 mm
weight of mice [4, 6]: 21.0 ± 1.5 g
spleen weight [4, 6]: 94.6 ± 6.7 mg

IVRRADRAAVPGGGGRGD [HM-3, Ile-Val-Arg-Arg-Ala-Asp-Arg-Ala-Ala-Val-Pro-Gly-Gly-Gly-Gly-Arg-Gly-Asp]
inhibiting effect on angiogenesis [1]: no inhibiting effect
inhibition rate of angiogenesis ([1]; 20 ng/tail iv): 2%
area of SIVs ([1]; 20 ng/tail iv): 52186
inhibition rate of angiogenesis ([1]; 66 ng/tail iv): 20%
area of SIVs ([1]; 66 ng/tail iv): 42492
TNF-α content in cell supernatant ([5]; high-dosage (Table 5: 18 μmol/L)): 58.9 ± 10.6 pg/mL
TNF-α content in cell supernatant ([5]; low-dosage (Table 5: 9 μmol/L)): 83.9 ± 20.4 pg/mL
ankle width [4, 7]: 4.21±0.15 mm
arthritis scoring [4, 7]: 7.8±1.4
paw circumference [4, 7]: 11.41±0.53 mm
weight of mice [4, 7]: 20.9 ± 1.5 g
spleen weight [4, 7]: 94.2 ± 13.3 mg
therapeutic effect compared with group G3 (positive Adalimumab group) ([4]; groups G4 (HM-3), G10 (TSL-4 12.5 mg/kg once for 5 days, 3 times)): slightly lower than that of the group G3

HyFc-(GGGGS)3-HM-3 [TSL-16]
inhibition rate / in vitro efficacy compared with TSL-4 control group [2]: Significantly lower

B1: HM-3-(GGGGS)3-IgG2-Fc (protein)
chain: IVRRADRAAVPGGGGRGDGGGGSGGGGSGGGGSERKCCVECPPCPAPPVAGPSVFLFPPKPKDTLMISRTPEVTCVVVDVSHEDPEVQFNWYVDGVEVHNAKTKPREEQFNSTFRVVSVLTVVHQDWLNGKEYKCKVSNKGLPAPIEKTISKTKGQPREPQVYTLPPSREEMTKNQVSLTCLVKGFYPSDISVEWESNGQPENNYKTTPPMLDSDGSFFLYSKLTVDKSRWQQGNVFSCSVMHEALHNHYTQKSLSLSPGK
inhibiting effect on angiogenesis [1]: significant inhibitory effect
inhibition rate of angiogenesis ([1]; 20 ng/tail iv): 25%
area of SIVs ([1]; 20 ng/tail iv): 39929
inhibition rate of angiogenesis ([1]; 66 ng/tail iv): 30%
area of SIVs ([1]; 66 ng/tail iv): 37022
optimal (best) inhibition rate of splenic lymphocyte proliferation [2]: 39.6%
